In ChEMBL document CHEMBL5380869, “Discovery of an Oral, Beyond-Rule-of-Five Mcl-1 Protein-Protein Interaction Modulator with the Potential of Treating Hematological Malignancies” (J Med Chem, 2023):
In brackets after ≈: the same amount, converted by molar mass.

Legend:
[1] = Thermodynamic (equilibrium) solubility of the compound measured after 3 days agitation in pH 7 buffer by LC-MS/MS analysis; format: physicochemical; settings: time 3 day, read-out: Therm_solubility
[2] = Inhibition of terbium-labelled Mcl-1 (unknown origin)/Bim BH3 peptide (H3N-(C/Cy5Mal)-WIAQELRRIGDEFN-OH) (unknown origin) interaction assessed as displacement of Cy5-labeled Bim BH3 peptide by TR-HTRF assay
[3] = Cardiotoxicity risk in human iPSC-CM assessed as calcium transients at 1 uM by CTCM assay; format: toxicity, cell-based
[4] = Intrinsic clearance in mouse liver microsomes measured upto 60 mins by LC-MS/MS analysis; format: ADME, Microsome; settings: read-out: CLH
[5] = Intrinsic clearance in human liver microsomes measured upto 60 mins by LC-MS/MS analysis; format: ADME, Microsome; settings: read-out: CLH
[6] = Thermodynamic (equilibrium) solubility of the compound measured after 3 days agitation in pH 2 buffer by LC-MS/MS analysis; format: physicochemical; settings: time 3 day, read-out: Therm_solubility
[7] = Cardiotoxicity risk in human iPSC-CM assessed as calcium transients at 3 uM by CTCM assay; format: toxicity, cell-based
[8] = Cardiotoxicity risk in human iPSC-CM assessed as calcium transients at 10 uM by CTCM assay; format: toxicity, cell-based
MOLP-8 = test: Induction apoptosis in human MOLP8 cells assessed as cell killing measured after 2 hrs by Caspase-Glo 3/7 Assay; format: functional, cell-based; settings: MOLP-8, 2 h
[9] = Lipophilicity, CHI logD of compound at pH 7.4 by UPLC-TOF analysis; format: physicochemical; settings: buffer
[10] = Lipophilicity, CHI logD of compound at pH 2.6 by UPLC-TOF analysis; format: physicochemical; settings: buffer
[11] = Lipophilicity, CHI logP of compound at pH 7.4 by UPLC-TOF analysis; format: physicochemical; settings: buffer, read-out: logP

Compound | solubility thermodynamic at 72 h [1] [µM] | Ki [2] [nM] | Activity [3] | microsomal CLint [4] [µL/min/mg] | microsomal CLint [5] [µL/min/mg] | solubility thermodynamic at 72 h [6] [µM] | Activity [7] | Activity [8] | AC50 (MOLP-8) [nM] | chromatographic logD [9] | chromatographic logD [10] | chromatographic logD [11]
COc1nn(C)cc1C(=O)N[S@@]1(=O)=NC(=O)c2ccc3c(c2)N(C[C@@H]2CCO[C@H]2[C@@H](OC)/C=C/C[C@H](C)C1)C[C@@]1(CCCc2cc(Cl)ccc21)CO3 | 172 (≈ 129 µg/mL) | 0.023 | Non-Toxic | < 7.7 | < 7.7 | 0.27 (≈ 0.203 µg/mL) | Non-Toxic | Non-Toxic | 76.1 | 2.9 |  | 
C[C@@H]1[C@@H](C)C/C=C(\F)[C@@](O)(CN2CCN3CCCC[C@@H]3C2)[C@@H]2OCC[C@H]2CN2C[C@@]3(CCCc4cc(Cl)ccc43)COc3ccc(cc32)C(=O)NS1(=O)=O | < 0.1 | 0.22 |  | < 7.7 | < 7.7 | 95 (≈ 74.6 µg/mL) |  |  | 2660 |  | 2.5 | 2.9
COc1nn(C)cc1C(=O)N[S@@]1(=O)=NC(=O)c2ccc3c(c2)N(C[C@@H]2CCO[C@H]2[C@H](OC)/C(F)=C/C[C@H](C)C1)C[C@@]1(CCCc2cc(Cl)ccc21)CO3 | 188 (≈ 145 µg/mL) | 5.1 | Non-Toxic | < 7.7 | < 7.7 | 0.2 (≈ 0.154 µg/mL) | Non-Toxic |  | > 5000 | 2.9 |  | 
C[C@@H]1[C@@H](C)C/C=C(\F)[C@H](OCCN2CCOCC2)[C@@H]2OCC[C@H]2CN2C[C@@]3(CCCc4cc(Cl)ccc43)COc3ccc(cc32)C(=O)NS1(=O)=O | 1.2 (≈ 0.896 µg/mL) | 0.19 | Non-Toxic | 34 | 62 | 539 (≈ 402 µg/mL) | Non-Toxic | Non-Toxic | 314 | 2.7 | 2.5 | 
CO[C@H]1/C(F)=C/C[C@H](C)[C@@H](C)S(=O)(=O)NC(=O)c2cnc3c(n2)N(C[C@@H]2CCO[C@H]21)C[C@@]1(CCCc2cc(Cl)ccc21)CO3 | 143 (≈ 92.8 µg/mL) | 5.29 |  | < 7.7 | 98 | < 0.1 |  |  | 1220 | 2.8 |  | 
C[C@@H]1[C@@H](C)C/C=C/[C@H](OCCN2CCOCC2)[C@@H]2OCC[C@H]2CN2C[C@@]3(CCCc4cc(Cl)ccc43)COc3ccc(cc32)C(=O)NS1(=O)=O | 0.4 (≈ 0.291 µg/mL) | 0.23 | Non-Toxic | 14 | 34 | 521 (≈ 379 µg/mL) | Non-Toxic | Non-Toxic | 616 | 2.7 | 2.3 | 
CO[C@@H]1/C(F)=C/C[C@H](C)[C@@H](C)S(=O)(=O)NC(=O)c2ccc3c(c2)N(C[C@@H]2CCO[C@H]21)C[C@@]1(CCCc2cc(Cl)ccc21)CO3 | 11.2 (≈ 7.25 µg/mL) | 1.13 |  | 21 | < 7.7 | < 0.5 |  |  | 1120 | 3 |  | 
C/C1=C\C[C@H](C)[C@@H](C)S(=O)(=O)NC(=O)c2ccc3c(c2)N(C[C@@H]2CCO[C@H]2[C@H]1CO)C[C@@]1(CCCc2cc(Cl)ccc21)CO3 | < 0.1 | 0.52 |  | 27 | < 7.7 | < 0.1 |  |  | 752 | 2.8 |  | 
COc1nn(C)cc1C(=O)N[S@]1(=O)=NC(=O)c2ccc3c(c2)N(C[C@@H]2CCO[C@H]2[C@@H](OC)/C(F)=C/C[C@H](C)C1)C[C@@]1(CCCc2cc(Cl)ccc21)CO3 | 202 (≈ 156 µg/mL) | 0.25 | Non-Toxic | 9.3 | 16 | < 0.1 | Non-Toxic |  | 2420 | 3 |  | 
C[C@@H]1[C@@H](C)C/C=C(\F)[C@@](O)(CC#N)[C@@H]2OCC[C@H]2CN2C[C@@]3(CCCc4cc(Cl)ccc43)COc3ccc(cc32)C(=O)NS1(=O)=O | 0.3 (≈ 0.202 µg/mL) | 2.36 |  | < 7.7 | < 7.7 | < 0.5 |  |  | > 5000 | 3.1 |  | 
C[C@@H]1[C@@H](C)C/C=C(\F)[C@@](O)(CC(=O)N(C)C)[C@@H]2OCC[C@H]2CN2C[C@@]3(CCCc4cc(Cl)ccc43)COc3ccc(cc32)C(=O)NS1(=O)=O | < 0.1 | 0.18 | Non-Toxic | < 7.7 | < 7.7 | < 0.1 | Non-Toxic |  | 436 | 3.6 |  | 
COC[C@H]1/C(C)=C/C[C@H](C)[C@@H](C)S(=O)(=O)NC(=O)c2ccc3c(c2)N(C[C@@H]2CCO[C@H]21)C[C@@]1(CCCc2cc(Cl)ccc21)CO3 | < 0.1 | 0.67 |  | 18 | < 7.7 | < 0.1 |  |  | 1820 | 3.7 |  | 
COc1nn(C)cc1C(=O)N[S@]1(=O)=NC(=O)c2ccc3c(c2)N(C[C@@H]2CCO[C@H]2[C@@](CN2CCN4CCOC[C@@H]4C2)(OC)/C(F)=C/C[C@H](C)C1)C[C@@]1(CCCc2cc(Cl)ccc21)CO3 | 518 (≈ 479 µg/mL) | 0.048 | Non-Toxic | < 7.7 | < 7.7 | 544 (≈ 503 µg/mL) | Non-Toxic |  | 424 | 3 |  | 
C[C@@H]1[C@@H](C)C/C=C/[C@H](O)[C@@H]2OCC[C@H]2CN2C[C@@]3(CCCc4cc(Cl)ccc43)COc3ccc(cc32)C(=O)NS1(=O)=O | 53 (≈ 32.6 µg/mL) | 0.72 |  | 28 | 16 | < 0.1 |  |  | 752 | 2.6 |  | 
COc1nn(C)cc1C(=O)N[S@]1(=O)=NC(=O)c2ccc3c(c2)N(C[C@@H]2CCO[C@H]2[C@](CN2CCN4CCOC[C@@H]4C2)(OC)/C(F)=C/C[C@H](C)C1)C[C@@]1(CCCc2cc(Cl)ccc21)CO3 | 25 (≈ 23.1 µg/mL) | 0.17 | Non-Toxic | < 7.7 | < 7.7 | 480 (≈ 444 µg/mL) | Non-Toxic | Non-Toxic | 702 | 3 |  | 
COc1nn(C)cc1C(=O)N[S@]1(=O)=NC(=O)c2ccc3c(c2)N(C[C@@H]2CCO[C@H]2[C@H](OC)/C(F)=C/C[C@H](C)C1)C[C@@]1(CCCc2cc(Cl)ccc21)CO3 | 0.6 (≈ 0.462 µg/mL) | 0.025 | Non-Toxic | 16 | < 7.7 | < 0.1 | Non-Toxic | Non-Toxic | 486 | 3.1 |  | 
